Experimental data taken from ChEMBL document CHEMBL5579888, “A Comparative Study on the DNA Interactions and Biological Activities of Benzophenanthridine and Protoberberine Alkaloids” (J Nat Prod, 2024).
The source made the active and inactive calls. No cut-off for these calls is given here.

Legend:
[1] = test system: dsDNA; experiment: Binding affinity to double stranded DNA ssab (unknown origin) at 20 uM by UV-Visible absorption spectroscopic analysis; type: nucleic-acid assay
[2] = test system: Quadruplex DNA; experiment: Binding affinity to human G4-quadruplex 22AG DNA 5'- AGGGTTAGGGTTAGGGTTAGGG -3' at 20 uM by UV-Visible absorption spectroscopic analysis; type: nucleic-acid assay
[3] = test system: Quadruplex DNA; experiment: Binding affinity to human G4-quadruplex Oxy28 DNA 5'- GGGGTTTTGGGGTTTTGGGGTTTTGGGG -3' at 20 uM by UV-Visible absorption spectroscopic analysis; type: nucleic-acid assay
[4] = test system: Quadruplex DNA; experiment: Binding affinity to human G4-quadruplex Pu27 DNA 5'- TGGGGAGGGTGGGGAGGGTGGGGAAGG-3' at 20 uM by UV-Visible absorption spectroscopic analysis; type: nucleic-acid assay
[5] = test system: Quadruplex DNA; experiment: Binding affinity to human G4-quadruplex Bcl2 DNA 5'- CGGGCGCGGGAGGAAGGGGGCGGGAGC-3' at 20 uM by UV-Visible absorption spectroscopic analysis; type: nucleic-acid assay
[6] = test system: Quadruplex DNA; experiment: Binding affinity to human G4-quadruplex KRAS DNA 5'- AGGGCGGTGTGGGAAGAGGGAAGAGGGGGAGG-3' at 20 uM by UV-Visible absorption spectroscopic analysis; type: nucleic-acid assay
[7] = test system: Quadruplex DNA; experiment: Binding affinity to human G4-quadruplex VEGF DNA 5'- GGGCGGGCCGGGGGCGGG-3' at 20 uM by UV-Visible absorption spectroscopic analysis; type: nucleic-acid assay
[8] = test system: Quadruplex DNA; experiment: Binding affinity to human G4-quadruplex c-kit2 DNA 5'- CGGGCGGGCGCGAGGGAGGGT-3' at 20 uM by UV-Visible absorption spectroscopic analysis; type: nucleic-acid assay
[9] = test system: Quadruplex DNA; experiment: Binding affinity to human G4-quadruplex Oxy28 DNA 5'- GGGGTTTTGGGGTTTTGGGGTTTTGGGG -3' at 10 uM by CD spectra analysis; type: nucleic-acid assay
[10] = test system: Quadruplex DNA; experiment: Binding affinity to human G4-quadruplex KRAS DNA 5'- AGGGCGGTGTGGGAAGAGGGAAGAGGGGGAGG-3' at 10 uM by CD spectra analysis; type: nucleic-acid assay
[11] = target: Salmon testes DNA; experiment: Displacement of Hoechst 33342 from salmon sperm DNA incubated for 0.5 hrs by SpectraMax M2 microplate reader analysis; type: nucleic-acid assay, Salmo salar
[12] = test system: Calf thymus DNA; experiment: Displacement of Hoechst 33342 from calf thymus DNA incubated for 0.5 hrs by SpectraMax M2 microplate reader analysis; type: nucleic-acid assay, Bos taurus
[13] = target: dsDNA; experiment: Displacement of Hoechst 33342 from double stranded DNA ssab (unknown origin) incubated for 0.5 hrs by SpectraMax M2 microplate reader analysis; type: nucleic-acid assay
[14] = target: Quadruplex DNA; experiment: Displacement of ThT from human G4-quadruplex 22AG DNA 5'- AGGGTTAGGGTTAGGGTTAGGG -3' incubated for 0.5 hrs by SpectraMax M2 microplate reader analysis; type: nucleic-acid assay
[15] = target: Quadruplex DNA; experiment: Displacement of ThT from human G4-quadruplex Oxy28 DNA 5'- GGGGTTTTGGGGTTTTGGGGTTTTGGGG -3' incubated for 0.5 hrs by SpectraMax M2 microplate reader analysis; type: nucleic-acid assay
[16] = target: Quadruplex DNA; experiment: Displacement of ThT from human G4-quadruplex Pu27 DNA 5'- TGGGGAGGGTGGGGAGGGTGGGGAAGG-3' incubated for 0.5 hrs by SpectraMax M2 microplate reader analysis; type: nucleic-acid assay
[17] = target: Quadruplex DNA; experiment: Displacement of ThT from human G4-quadruplex KRAS DNA 5'- AGGGCGGTGTGGGAAGAGGGAAGAGGGGGAGG-3' incubated for 0.5 hrs by SpectraMax M2 microplate reader analysis; type: nucleic-acid assay
[18] = target: Quadruplex DNA; experiment: Displacement of ThT from human G4-quadruplex VEGF DNA 5'- GGGCGGGCCGGGGGCGGG-3' incubated for 0.5 hrs by SpectraMax M2 microplate reader analysis; type: nucleic-acid assay
[19] = target: Quadruplex DNA; experiment: Displacement of ThT from human G4-quadruplex c-kit2 DNA 5'- CGGGCGGGCGCGAGGGAGGGT-3' incubated for 0.5 hrs by SpectraMax M2 microplate reader analysis; type: nucleic-acid assay
[20] = test system: A-375; experiment: Inhibition of DNA synthesis in human A-375 cells at 5 uM incubated for 24 hrs by Edu incorporation based flow cytometry analysis; type: functional, cell-based
[21] = test system: A-375; experiment: Inhibition of RNA synthesis in human A-375 cells at 5 uM incubated for 24 hrs by EU incorporation based flow cytometry analysis; type: functional, cell-based
[22] = test system: A-375; experiment: Induction of cell cycle arrest in human A-375 cells assessed assessed as cell accumulation at G0/G1 phase at 5 uM incubated for 24 hrs by propidium iodide staining based flow cytometry (reference value: 54.25 %); type: functional
[23] = test system: A-375; experiment: Induction of cell cycle arrest in human A-375 cells assessed assessed as cell accumulation at S phase at 5 uM incubated for 24 hrs by propidium iodide staining based flow cytometry (reference value: 30.05 %); type: functional
[24] = test system: A-375; experiment: Induction of cell cycle arrest in human A-375 cells assessed assessed as cell accumulation at G2/M phase at 5 uM incubated for 24 hrs by propidium iodide staining based flow cytometry (reference value: 15.70 %); type: functional
[25] = test system: A-375; experiment: Induction of apoptosis in human A-375 cells assessed assessed as viable cells at 5 uM incubated for 24 hrs by Annexin V-Elab Fluor 647/propidium iodide staining based flow cytometry (reference value: 91.1 %); type: functional; conditions: read-out: Activity
[26] = test system: A-375; experiment: Induction of apoptosis in human A-375 cells assessed assessed as early apoptotic cells at 5 uM incubated for 24 hrs by Annexin V-Elab Fluor 647/propidium iodide staining based flow cytometry (reference value: 1.14 %); type: functional
[27] = test system: A-375; experiment: Induction of apoptosis in human A-375 cells assessed assessed as late apoptotic cells at 5 uM incubated for 24 hrs by Annexin V-Elab Fluor 647/propidium iodide staining based flow cytometry (reference value: 6.31 %); type: functional
[28] = test system: A-375; experiment: Induction of apoptosis in human A-375 cells assessed assessed as necrotic cells at 5 uM incubated for 24 hrs by Annexin V-Elab Fluor 647/propidium iodide staining based flow cytometry (reference value: 1.45 %); type: functional
[29] = test system: A-375; experiment: Induction of DNA damage in human A-375 cells assessed as appearance of long DNA tails at 5 uM incubated for 24 hrs by comet assay; type: functional, cell-based
[30] = target: Quadruplex DNA; experiment: Displacement of ThT from human G4-quadruplex Bcl2 DNA 5'- CGGGCGCGGGAGGAAGGGGGCGGGAGC-3' incubated for 0.5 hrs by SpectraMax M2 microplate reader analysis; type: nucleic-acid assay

Compound: COc1cc2c[n+](C)c3c4cc5c(cc4ccc3c2cc1OC)OCO5 [NITIDINE]
- Activity [1]: Active
- Activity [2]: Active
- Activity [3]: Active
- Activity [4]: Active
- Activity [5]: Active
- Activity [6]: Active
- Activity [7]: Active
- Activity [8]: Active
- Activity [9]: inactive
- Activity [10]: inactive
- DC50 [11]: 10800 nM
- DC50 [12]: 14400 nM
- DC50 [13]: 2970 nM
- DC50 [14]: 15500 nM
- DC50 [15]: 1980 nM
- DC50 [16]: 990 nM
- DC50 [17]: 9080 nM
- DC50 [18]: 590 nM
- DC50 [19]: 1050 nM
- inhibition [20]: Active
- inhibition [21]: Active
- Activity [22]: 40.5%
- Activity [23]: 30.21%
- Activity [24]: 29.3%
- viability at 5 µM [25]: 30.8%
- Activity [26]: 2.03%
- Activity [27]: 60.4%
- Activity [28]: 6.7%
- Activity [29]: Active
- Kd [30]: 1520 nM
